Experimental data published in paper PMC7345905, “Microbial Metabolite Urolithin B Inhibits Recombinant Human Monoamine Oxidase A Enzyme” (Metabolites, 2020).
Values joined by “and” are separate entries in the source; they are usually repeats but may differ in a detail not shown here. Identical values can stand only once. One block for each compound: values may come before it.

How the values were obtained:
human recombinant MAO-A = molecular target: T1, human recombinant MAO-A (Homo sapiens, UniProt P21397); test: MAO-Glo MAO-A inhibition assay; type: biochemical; conditions: for IC50: 0–50 μM range, 160 µM substrate, 37 °C, 1 h, read-out: IC50 for MAO-A inhibitory activity; for MAO-A enzyme assay, Percent of control: N=1-3; for inhibition of MAO-A enzyme activity: compared to vehicle
T1 construct: purchased Sigma-Aldrich
T1 sequence (P21397 1-527): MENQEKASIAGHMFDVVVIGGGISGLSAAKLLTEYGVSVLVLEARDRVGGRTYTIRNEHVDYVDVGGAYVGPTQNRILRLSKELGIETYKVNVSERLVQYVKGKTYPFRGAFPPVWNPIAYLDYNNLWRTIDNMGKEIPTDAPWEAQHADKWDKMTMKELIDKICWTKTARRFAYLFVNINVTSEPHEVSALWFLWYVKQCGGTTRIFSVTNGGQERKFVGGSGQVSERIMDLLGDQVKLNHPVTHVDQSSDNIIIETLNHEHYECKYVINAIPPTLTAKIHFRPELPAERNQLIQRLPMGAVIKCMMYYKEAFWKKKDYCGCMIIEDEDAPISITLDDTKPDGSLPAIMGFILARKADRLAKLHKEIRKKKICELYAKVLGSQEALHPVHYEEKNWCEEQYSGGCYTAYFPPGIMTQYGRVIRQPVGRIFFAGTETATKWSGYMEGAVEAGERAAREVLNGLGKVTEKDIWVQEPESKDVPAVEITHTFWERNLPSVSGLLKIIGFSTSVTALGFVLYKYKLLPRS
Description: MAO inhibition assays were performed using a MAO-Glo™ Assay kit (Promega) according to the manufacturer’s instructions. Briefly, 1 µg of human recombinant MAO-A and MAO-B enzyme isoforms were incubated with 160 and 16 µM of MAO substrates, respectively. […] The enzyme reaction was quenched by the addition of a luciferin detection reagent. […] An equal volume of dimethyl sulfoxide (0.1%) was added to the enzyme assay as a control. After 1 h of incubation, the luminescence was measured with a multimode microplate reader (Synergy HT, BioTek, Winooski, VT, USA) to determine the MAO enzyme activities. Initially, the inhibition potential of all the test compounds was evaluated at a concentration of 100 μM. The control reaction (with no inhibitor) with vehicle (DMSO 0.1%) was set at 100% activity. To determine IC50 of the test compounds, the dose dependent enzyme assays were performed. We used range of 0.1 to 50 μM concentrations for MAO-A and 0.1 to 200 μM concentrations of test compounds for the MAO-B enzyme activities. The type of enzyme inhibition was determined using variable concentrations of MAO-A substrate (10–360 µM) and MAO-B substrate (2–64 µM) for the respective enzyme assay. […] A Lineweaver–Burk double reciprocal plot was generated, and the mode of inhibition was determined by visual examination of the plot. The slope of the reciprocal plots was plotted against the inhibitor concentrations and determined the x-axis intercept that represented the inhibitor constant, Ki value.

[1] = parameters: method as in PMID 31892167; conditions: rats administered pomegranate juice; cited from earlier work

IC50 (human recombinant MAO-A): 0.88 µM
inhibition of MAO-A enzyme activity (human recombinant MAO-A; 100 µM): 94%
Structure (SMILES): O=c1oc2cc(O)ccc2c2ccccc12 [UB, urolithin-B]
MAO-A enzyme assay, Percent of control (human recombinant MAO-A; 0.1 µM, listed as UroB): 101.662% of control and 98.0675% of control and 93.5275% of control
MAO-A enzyme assay, Percent of control (human recombinant MAO-A; 0.5 µM, listed as UroB): 64.4524% of control and 74.8902% of control and 80.9217% of control
MAO-A enzyme assay, Percent of control (human recombinant MAO-A; 1 µM, listed as UroB): 51.8207% of control and 51.0498% of control and 41.9972% of control
MAO-A enzyme assay, Percent of control (human recombinant MAO-A; 5 µM, listed as UroB): 37.9544% of control and 37.4055% of control and 33.2487% of control
MAO-A enzyme assay, Percent of control (human recombinant MAO-A; 10 µM, listed as UroB): 21.8683% of control and 19.2684% of control and 22.2499% of control
MAO-A enzyme assay, Percent of control (human recombinant MAO-A; 25 µM, listed as UroB): 10.1321% of control and 11.7696% of control and 12.9039% of control
MAO-A enzyme assay, Percent of control (human recombinant MAO-A; 50 µM, listed as UroB): 6.787% of control and 6.156% of control and 5.227% of control
MAO-A enzyme assay, Percent of control (human recombinant MAO-A; 100 µM (Figure 1A), listed as UroB, 100 µM): 5.573% of control and 6.858% of control and 6.006% of control

IC50 (human recombinant MAO-A): 5.88 ± 0.69 µM
inhibition of MAO-A enzyme activity (human recombinant MAO-A; 100 µM): 86%
Structure (SMILES): O=c1oc2cc(O)ccc2c2ccc(O)cc12 [UA, urolithin-A]
detection in the brain [1]: detected in the brains
MAO-A enzyme assay, Percent of control (human recombinant MAO-A; 0.1 µM, listed as UroA): 103.587% of control and 97.8592% of control and 101.542% of control
MAO-A enzyme assay, Percent of control (human recombinant MAO-A; 0.5 µM, listed as UroA): 95.9845% of control and 94.0414% of control and 95.8492% of control
MAO-A enzyme assay, Percent of control (human recombinant MAO-A; 1 µM, listed as UroA): 62.4789% of control and 79.8224% of control and 85.3157% of control
MAO-A enzyme assay, Percent of control (human recombinant MAO-A; 5 µM, listed as UroA): 59.251% of control and 60.0082% of control and 51.3175% of control
MAO-A enzyme assay, Percent of control (human recombinant MAO-A; 10 µM, listed as UroA): 48.1185% of control and 46.1024% of control and 43.7898% of control
MAO-A enzyme assay, Percent of control (human recombinant MAO-A; 25 µM, listed as UroA): 24.6659% of control and 27.2749% of control and 27.3403% of control
MAO-A enzyme assay, Percent of control (human recombinant MAO-A; 50 µM, listed as UroA): 13.9758% of control and 16.0253% of control and 16.3887% of control
MAO-A enzyme assay, Percent of control (human recombinant MAO-A; 100 µM (Figure 1A), listed as UroA, 100 µM): 13.2811% of control and 14.5442% of control and 14.4558% of control

IC50 (human recombinant MAO-A): 29.6 ± 1.8 µM
inhibition of MAO-A enzyme activity (human recombinant MAO-A; 100 µM): 88%
Structure (SMILES): O=c1oc2cc(O)ccc2c2cc(O)c(O)cc12 [UC, urolithin-C]
MAO-A enzyme assay, Percent of control (human recombinant MAO-A; 0.1 µM, listed as UroC): 81.5785% of control and 83.2586% of control and 93.5154% of control
MAO-A enzyme assay, Percent of control (human recombinant MAO-A; 0.5 µM, listed as UroC): 88.4995% of control and 88.7443% of control and 76.6736% of control
MAO-A enzyme assay, Percent of control (human recombinant MAO-A; 1 µM, listed as UroC): 95.9222% of control and 92.2777% of control and 91.5145% of control
MAO-A enzyme assay, Percent of control (human recombinant MAO-A; 5 µM, listed as UroC): 81.1285% of control and 71.4874% of control and 89.8253% of control
MAO-A enzyme assay, Percent of control (human recombinant MAO-A; 10 µM, listed as UroC): 68.5636% of control and 69.9396% of control and 63.7804% of control
MAO-A enzyme assay, Percent of control (human recombinant MAO-A; 25 µM, listed as UroC): 64.6896% of control and 58.5532% of control and 52.6539% of control
MAO-A enzyme assay, Percent of control (human recombinant MAO-A; 50 µM, listed as UroC): 46.6421% of control and 44.3022% of control and 44.6686% of control
MAO-A enzyme assay, Percent of control (human recombinant MAO-A; 100 µM (Figure 1A), listed as UroC, 100 µM): 11.345% of control and 12.577% of control and 11.352% of control
